Measured values from PubChem BioAssay AID1963972 (Molecular Pharmacology Branch, DTP, NCI, 2024).
Blank lines part the entries; values can stand above or below the compound they belong to.

System: 945468-187-T-J2-PDC spheroids viability
Assay: Anticancer human tumor 945468-187-T-J2-PDC patient-derived rectal carcinoma cell line growth inhibition [PI3K]
Settings: spheroids with HUVEC and MSC; for IC50: curve of first compound; for viability, T/C: stronger effect = lower value
Source text: Combinatorial screen of targeted agents with the PI3K inhibitors inavolisib, alpelisib, duvelisib, and copanlisib in multi-cell type tumor spheroids
A high-throughput screen of multi-cell type tumor spheroids was designed to identify active combinations of targeted small molecules and PI3K pathway inhibitors. Complex spheroids include a stromal component modeled by human endothelial cells (HUVEC) and fibroblasts modeled by human mesenchymal stem cells (MSCs). The concentration ranges selected for each drug and investigational agent were based upon clinically achievable concentrations if the clinical Cmax of the agent was known.
Compounds. The drugs and investigational agents: inavolisib (NSC800729), alpelisib (NSC765974), duvelisib (NSC772469), copanlisib (NSC816437), ipatasertib (NSC767898), afuresertib (NSC778305), talazoparib (NSC767125), sapanisertib (NSC764658), selumetinib (NSC741078), tovorafenib (DAY101, NSC766906), vemurafenib (NSC761431), ravoxertinib (NSC781343), sotorasib (NSC818433), MRTX1133 (NSC 836407), abemaciclib (NSC 768073), palbociclib (NSC758247), venetoclax (NSC 766270), SY5609 (NSC837396), enzalutamide (NSC755605), and darolutamide (NSC825331), were obtained from the National Cancer Institute (NCI) Developmental Therapeutics Program Chemical Repository. The FDA-approved anticancer drug set is available from the NCI Developmental Therapeutics Program. […] The stock solutions were prepared in dimethyl sulfoxide (DMSO, Sigma-Aldrich, St. Louis, MO, cat. D2650) at 800-fold the tested concentration and stored at -70 degrees C prior to their use. All drugs and investigational agents were tested over a range starting from a high concentration at or near the clinical Cmax and decreasing in half-log increments. If the clinical Cmax for an agent had not been determined, the highest concentration tested was 10 microM.
Cell Culture. All cells were maintained in an incubator at 37 degrees C and 5% CO2 with 95% humidity. The PDC lines were cultured according to standard operating procedures established by the NCI PDMR (https://pdmr.cancer.gov/sops/default.htm). All PDCs were thawed and cultured in Matrigel-coated flasks prepared with a working solution of 1X Ham's F-12 nutrient mix, without supplementation (Invitrogen, Waltham, MA, cat. 11765054), 100 U/mL penicillin-streptomycin (Invitrogen, cat. 15140122), and 2.5% Matrigel (Corning Inc., Corning, NY, cat. 354248) for the first three passages. The 354836-022-R-J1-PDC, 475296-252-R-J1-PDC, and 997726-040-R-J2-PDC lines were cultured in 6A media, which includes advanced DMEM/F-12 (Thermo Fisher Scientific, cat. 12634028), 10 mM HEPES (Thermo Fisher Scientific, cat. 15630080), 1X GlutaMAX supplement (Thermo Fisher Scientific, cat. 35050061), 0.1 mg/mL primocin (InvivoGen, San Diego, CA, cat. ant-pm-2), 10% defined fetal bovine serum, heat inactivated (HyClone Laboratories Inc., Logan, UT, cat. SH30070.03HI), 50% L-WRN conditioned media (ATCC, cat. CRL-3276), 1.25 mM N-Acetyl-L-cysteine (Sigma-Aldrich, cat. A9165), 10 mM nicotinamide (Sigma-Aldrich, cat. N0636), 1X B-27 supplement (Thermo Fisher Scientific, cat. 17504044), 1X N-2 supplement (Thermo Fisher Scientific, cat. 17502048), and 10 microM Y-27632 dihydrochloride (Tocris Bioscience, Bristol, United Kingdom, cat. 1254). The 624824-186-R-J2-PDC line was cultured in 6C/Colon 1B media, which includes all 6A media components plus 50 ng/mL human EGF recombinant protein (Thermo Fisher Scientific, cat. PHG0311). […]

[1] = second compound 0.00316 µM, first compound 0.0316 µM
[2] = second compound 0.00316 µM, first compound 0.1 µM
[3] = second compound 0.01 µM, first compound 0.0316 µM
[4] = second compound 0.01 µM, first compound 0.1 µM
[5] = second compound 0.0316 µM, first compound 0.0316 µM
[6] = second compound 0.0316 µM, first compound 0.1 µM
[7] = second compound 0.1 µM, first compound 0.0316 µM
[8] = second compound 0.1 µM, first compound 0.1 µM
[9] = second compound 0.316 µM, first compound 0.0316 µM
[10] = second compound 0.316 µM, first compound 0.1 µM
[11] = second compound 1 µM, first compound 0.0316 µM
[12] = second compound 1 µM, first compound 0.1 µM
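Also: spheroids exposed to compounds for seven days before reading.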

- IC50 (second compound 0.00316 µM): > 0.1 µM
- IC50 (second compound 0.01 µM): > 0.1 µM
- IC50 (second compound 0.0316 µM): > 0.1 µM
- IC50 (second compound 0.1 µM): > 0.1 µM
- IC50 (second compound 0.316 µM): > 0.1 µM
- IC50 (second compound 1 µM): > 0.1 µM
SMILES: CC(=O)c1c(C)c2cnc(Nc3ccc(N4CCNCC4)cn3)nc2n(C2CCCC2)c1=O + CC(Nc1ccc2c(c1)OCCn1cc(N3C(=O)OCC3C(F)F)nc1-2)C(N)=O
- viability, T/C (second compound 0.00316 µM, first compound 0.000316 µM): 91.5%
- viability, T/C (second compound 0.00316 µM, first compound 0.001 µM): 98.4%
- viability, T/C (second compound 0.00316 µM, first compound 0.00316 µM): 73.9%
- viability, T/C (second compound 0.00316 µM, first compound 0.01 µM): 114%
- viability, T/C [1]: 129%
- viability, T/C [2]: 128%
- viability, T/C (second compound 0.01 µM, first compound 0.000316 µM): 73.9%
- viability, T/C (second compound 0.01 µM, first compound 0.001 µM): 109%
- viability, T/C (second compound 0.01 µM, first compound 0.00316 µM): 127%
- viability, T/C (second compound 0.01 µM, first compound 0.01 µM): 83.5%
- viability, T/C [3]: 92.8%
- viability, T/C [4]: 114%
- viability, T/C (second compound 0.0316 µM, first compound 0.000316 µM): 91%
- viability, T/C (second compound 0.0316 µM, first compound 0.001 µM): 101%
- viability, T/C (second compound 0.0316 µM, first compound 0.00316 µM): 101%
- viability, T/C (second compound 0.0316 µM, first compound 0.01 µM): 87.3%
- viability, T/C [5]: 86.2%
- viability, T/C [6]: 105%
- viability, T/C (second compound 0.1 µM, first compound 0.000316 µM): 92.5%
- viability, T/C (second compound 0.1 µM, first compound 0.001 µM): 144%
- viability, T/C (second compound 0.1 µM, first compound 0.00316 µM): 84.2%
- viability, T/C (second compound 0.1 µM, first compound 0.01 µM): 101%
- viability, T/C [7]: 107%
- viability, T/C [8]: 100%
- viability, T/C (second compound 0.316 µM, first compound 0.000316 µM): 81.3%
- viability, T/C (second compound 0.316 µM, first compound 0.001 µM): 87%
- viability, T/C (second compound 0.316 µM, first compound 0.00316 µM): 79%
- viability, T/C (second compound 0.316 µM, first compound 0.01 µM): 78.1%
- viability, T/C [9]: 85.3%
- viability, T/C [10]: 73.1%
- viability, T/C (second compound 1 µM, first compound 0.000316 µM): 90.3%
- viability, T/C (second compound 1 µM, first compound 0.001 µM): 74.5%
- viability, T/C (second compound 1 µM, first compound 0.00316 µM): 70.8%
- viability, T/C (second compound 1 µM, first compound 0.01 µM): 72%
- viability, T/C [11]: 71.2%
- viability, T/C [12]: 81.4%

- IC50 (second compound 0.00316 µM): > 10 µM
- IC50 (second compound 0.01 µM): > 10 µM
- IC50 (second compound 0.0316 µM): > 10 µM
- IC50 (second compound 0.1 µM): > 10 µM
- IC50 (second compound 0.316 µM): > 10 µM
- IC50 (second compound 1 µM): > 10 µM
SMILES: CNC(=O)c1ccc(N2C(=S)N(c3ccc(C#N)c(C(F)(F)F)c3)C(=O)C2(C)C)cc1F + CC(Nc1ccc2c(c1)OCCn1cc(N3C(=O)OCC3C(F)F)nc1-2)C(N)=O
- viability, T/C [1]: 96.3%
- viability, T/C [2]: 84.8%
- viability, T/C (second compound 0.00316 µM, first compound 0.316 µM): 123%
- viability, T/C (second compound 0.00316 µM, first compound 1 µM): 95%
- viability, T/C (second compound 0.00316 µM, first compound 3.16 µM): 83.4%
- viability, T/C (second compound 0.00316 µM, first compound 10 µM): 80.1%
- viability, T/C [3]: 95.5%
- viability, T/C [4]: 82%
- viability, T/C (second compound 0.01 µM, first compound 0.316 µM): 85.4%
- viability, T/C (second compound 0.01 µM, first compound 1 µM): 103%
- viability, T/C (second compound 0.01 µM, first compound 3.16 µM): 96.8%
- viability, T/C (second compound 0.01 µM, first compound 10 µM): 84.4%
- viability, T/C [5]: 93.9%
- viability, T/C [6]: 78.2%
- viability, T/C (second compound 0.0316 µM, first compound 0.316 µM): 102%
- viability, T/C (second compound 0.0316 µM, first compound 1 µM): 103%
- viability, T/C (second compound 0.0316 µM, first compound 3.16 µM): 99.4%
- viability, T/C (second compound 0.0316 µM, first compound 10 µM): 90.3%
- viability, T/C [7]: 103%
- viability, T/C [8]: 124%
- viability, T/C (second compound 0.1 µM, first compound 0.316 µM): 96.4%
- viability, T/C (second compound 0.1 µM, first compound 1 µM): 92.5%
- viability, T/C (second compound 0.1 µM, first compound 3.16 µM): 86.5%
- viability, T/C (second compound 0.1 µM, first compound 10 µM): 76%
- viability, T/C [9]: 91%
- viability, T/C [10]: 95.5%
- viability, T/C (second compound 0.316 µM, first compound 0.316 µM): 88.6%
- viability, T/C (second compound 0.316 µM, first compound 1 µM): 88.6%
- viability, T/C (second compound 0.316 µM, first compound 3.16 µM): 89.1%
- viability, T/C (second compound 0.316 µM, first compound 10 µM): 71.6%
- viability, T/C [11]: 84.4%
- viability, T/C [12]: 88.6%
- viability, T/C (second compound 1 µM, first compound 0.316 µM): 86.7%
- viability, T/C (second compound 1 µM, first compound 1 µM): 87.4%
- viability, T/C (second compound 1 µM, first compound 3.16 µM): 64.4%
- viability, T/C (second compound 1 µM, first compound 10 µM): 79.6%
